Results reported in PubChem BioAssay (NCI).
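Method: 48-hour compound exposure of cells in 96-well plates, five concentrations, linear interpolation of endpoints. Here, GI50 denotes the concentration required for 50% inhibition of growth. TGI is the concentration that stops growth completely.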

What was measured:
Experiment in all cases: NCI anticancer screen, dose series, 48 h
IGROV1 ovarian = tested on: IGROV1 ovarian
K-562 leukemia = tested on: K-562 leukemia
MCF7 breast = tested on: MCF7 breast
NCI-H460 lung = tested on: NCI-H460 lung
NCI-H522 lung = tested on: NCI-H522 lung
OVCAR-3 ovarian = tested on: OVCAR-3 ovarian
OVCAR-8 ovarian = tested on: OVCAR-8 ovarian
PC-3 prostate = tested on: PC-3 prostate
SK-MEL-28 melanoma = tested on: SK-MEL-28 melanoma
U251 CNS = tested on: U251 CNS

Structure (SMILES) | GI50 (IGROV1 ovarian) [µM] | TGI (IGROV1 ovarian) [µM] | GI50 (K-562 leukemia) [µM] | TGI (K-562 leukemia) [µM] | GI50 (MCF7 breast) [µM] | TGI (MCF7 breast) [µM] | GI50 (NCI-H460 lung) [µM] | TGI (NCI-H460 lung) [µM] | GI50 (NCI-H522 lung) [µM] | TGI (NCI-H522 lung) [µM] | GI50 (OVCAR-3 ovarian) [µM] | TGI (OVCAR-3 ovarian) [µM] | GI50 (OVCAR-8 ovarian) [µM] | TGI (OVCAR-8 ovarian) [µM] | GI50 (PC-3 prostate) [µM] | TGI (PC-3 prostate) [µM] | GI50 (SK-MEL-28 melanoma) [µM] | TGI (SK-MEL-28 melanoma) [µM] | GI50 (U251 CNS) [µM] | TGI (U251 CNS) [µM]
COc1ccc(-c2nnc(SCC(=O)Nc3ccc(/C(C)=N\O)cc3)n2-c2ccccc2)cc1OC | 3.74 | 29.4 | > 100 | > 100 | > 100 | > 100 | > 100 | > 100 | 21.4 | > 100 | 7.87 | > 100 | 7.36 | > 100 | > 100 | > 100 | > 100 | > 100 | 3.61 | 19.6
N=c1c2c(-c3ccccc3)c(-c3ccccc3)n(Cc3ccccc3)c2ncn1CCCO | 2.08 | 28.1 | 0.959 | 7.6 | 0.472 | 2.07 | 0.448 | 4.47 | 0.756 | 3.46 | 1.38 | 8.08 | 0.739 | 22.2 | 1.62 | 12.2 | 1.44 | 3.4 | 0.704 | 13.3
Nc1ncnc2c1ncn2CC(O)C(=O)O (stereo unspecified) | – | > 100 | – | > 100 | – | > 100 | – | > 100 | – | > 100 | – | > 100 | – | > 100 | – | > 100 | – | > 100 | – | > 100
O=C1C=C[C@@]23C[C@@H](Nc4c(O)c5c6c(c42)=NCCC=6C=N5)SC3=C1 | 2.01 | 4.35 | 2.66 | > 21.9 | 2 | 4.04 | 7.2 | 19.8 | – | 3.13 | 1.5 | 3.76 | 1.87 | 3.66 | 2.42 | 7.61 | 7.48 | 20.1 | 2.72 | 7.92
O=C1Nc2ccccc2C1Cc1ccc([N+](=O)[O-])cc1 (stereo unspecified) | – | > 100 | – | > 100 | – | > 100 | – | > 100 | – | > 100 | – | > 100 | – | > 100 | – | > 100 | – | > 100 | – | > 100
O=C1c2ccc3c4c5ccc(c24)C(=O)N1CCCOCCCCOCCCNCc1ccc(cc1)CNCCCOCCCCOCCCN(C3=O)C5=O | 0.791 | 1.6 | 0.987 | 2.4 | 0.686 | 1.6 | 0.972 | 2 | 0.854 | 1.79 | 0.766 | 1.79 | 1.06 | 2.74 | 0.904 | 2.76 | 0.894 | 1.63 | 0.832 | 1.64
O=C1/C(=C/c2ccc([N+](=O)[O-])o2)Oc2ccc(Br)cc21 | 1.94 | 4.1 | 1.92 | 4.59 | 2.05 | 5.17 | 10.6 | 24.2 | 1.88 | 3.35 | 1.99 | 3.56 | 3.01 | 9.32 | 3.52 | 15.2 | 2.19 | 4.83 | 14.9 | 28.7
Cc1ccc2c(c1C)-c1c(ccc(C)c1C)C(=O)C2=O | – | 4.75 | – | 1.1 | – | 0.809 | – | 3.4 | – | 0.403 | – | 1.1 | – | 0.905 | – | 7.3 | – | 2.83 | – | 12.8
C/C([O-])=C1\Cc2ccccc2C1=O.C/C([O-])=C1\Cc2ccccc2C1=O.CC[O-].CC[O-].[Ti+4] | 8.46 | 39.5 | 20.3 | > 78.6 | 22 | > 100 | 10.3 | 44.7 | 14.2 | 47.6 | 24 | > 100 | 12.9 | 50.4 | 22 | 71.7 | 17.7 | 38.1 | 9.36 | 26.2
NC(=NC1CCCCCCC1)c1ccc(N2CCN(c3ccc(C(N)=NC4CCCCCCC4)cc3)CC2)cc1 | 53.1 | > 100 | 35.4 | > 100 | 5.77 | > 100 | 11.9 | > 100 | 12.8 | 52.2 | 1.73 | 13.8 | 4.9 | 30 | 22.6 | 46.8 | 6.75 | 22.8 | 2.96 | 15.3
O=C(CCCCCCSc1nc(-c2ccccc2)cc(-c2ccccc2)n1)NO | 2.25 | 10.3 | 1.58 | 12 | 1.31 | 15.9 | 1.4 | 11.7 | 1.07 | 7.72 | 2.15 | 9.26 | 1.79 | 16.9 | 2.24 | 13.4 | 2.85 | 12.4 | 1.51 | 4.08
Cc1nc2sc(C(=O)Nc3cccc4ccccc34)c(N)c2cc1C(=O)/C=C/c1ccccc1 | 0.301 | 1.3 | 0.191 | > 50 | 0.201 | > 50 | 0.411 | 2.34 | 0.215 | 2.11 | 0.181 | 0.593 | 0.534 | > 13.4 | 0.282 | 4.48 | 0.667 | 5.91 | 0.236 | 1.01
Cc1nc2cnc3cc(F)c(-c4ccc(Oc5ncccn5)cc4Cl)cc3c2n1[C@H]1CCN(C(=O)CO)C[C@@H]1F | 0.936 | > 100 | 4.6 | > 100 | 6.51 | > 58.2 | 2.54 | > 100 | 7.17 | 32.7 | 20 | > 76.3 | 7.35 | > 100 | 28.9 | > 100 | 0.023 | 12.1 | 5.91 | > 100
Cn1c(=O)c(Oc2ccc(F)cc2F)cc2cnc(NC(CO)CO)nc21 | > 25 | > 25 | > 25 | > 25 | > 25 | > 25 | > 25 | > 25 | > 25 | > 25 | > 25 | > 25 | > 25 | > 25 | > 25 | > 25 | > 25 | > 25 | > 25 | > 25
NC1=C(Br)C(=O)c2ncccc2C1=O | – | 2.62 | – | 1.01 | 0.367 | 1.99 | – | 1.16 | – | 0.766 | – | 2.33 | – | 2.24 | 1.65 | 9.64 | – | 1.25 | – | 0.671
c1cc(CCN2CCCCC2)ccn1 | – | > 100 | – | > 100 | – | > 100 | – | > 100 | – | > 100 | – | > 100 | – | > 100 | – | > 100 | – | > 100 | – | > 100
CN(CC(=O)O)c1ccc(/C=C/c2ccnc3ccccc23)cc1 | – | 39.4 | – | > 100 | – | 35.2 | – | 67.1 | – | 26.5 | – | > 100 | – | > 100 | – | > 100 | – | > 100 | – | 75.2
CC(=O)Nc1ccccc1C=C1c2ccccc2-c2ccccc21 | – | > 100 | – | > 100 | – | 50.3 | – | > 100 | – | > 100 | – | 73 | – | 47.4 | – | > 100 | – | > 100 | – | 60.4
COc1ccc(C/C(C)=C(\c2ccc(OCCN3CCOCC3)cc2)c2ccc(OC(=O)Cc3ccccc3)cc2)cc1 | 1.13 | 5.03 | 0.456 | 1.66 | 0.574 | 1.54 | 0.713 | 1.53 | 0.564 | 1.08 | 0.766 | 1.66 | 1.07 | 11.3 | 0.747 | 2.97 | 0.555 | 1.06 | 0.501 | 0.965
CC(C)[C@@]12C[C@@H](OC(=O)COC(=O)/C=C/c3ccccc3)[C@@](C)(O1)[C@@H]1CC[C@@H](C)[C@H]1[C@@H]2OC(=O)/C=C/c1ccccc1 | > 100 | > 100 | > 78.1 | > 100 | > 100 | > 100 | > 100 | > 100 | > 100 | > 100 | > 100 | > 100 | 0.173 | > 100 | > 100 | > 100 | > 100 | > 100 | > 100 | > 100
CCc1cccc2c3c(sc12)C(c1ccc(Cl)cc1)C(C#N)=C(N)O3 (stereo unspecified) | 0.53 | 11.1 | 0.391 | > 100 | 0.334 | 4.66 | 0.414 | 3.01 | 0.338 | 4.39 | 0.384 | 2.67 | 0.869 | 11 | 0.39 | 10.7 | 2.06 | 19.3 | 0.496 | 5.26
COc1ccc(-c2cnnn2-c2cc(OC)c3c(c2)OCO3)cc1 | 0.28 | > 100 | 0.0417 | > 100 | 0.0463 | > 100 | 0.0728 | > 29.2 | 0.0354 | 0.525 | 0.0547 | 0.437 | 0.304 | > 100 | 0.167 | > 100 | 0.58 | > 100 | 0.231 | > 100
CCCCCCC#Cc1ccccc1C#CCO | 18 | 43.3 | 28.8 | > 100 | 32.8 | > 100 | 32.8 | > 100 | 18.7 | 38.6 | 14.5 | 27.6 | 21.7 | 46.8 | 25.4 | 95.2 | 18 | 45.3 | 16.4 | 34.6
CCc1ccccc1N1CCN(C(=O)c2cc(OC)c(OC)c(OC)c2)CC1 | – | > 51.4 | – | 39.4 | – | 35 | – | 2.8 | – | 0.029 | – | 0.463 | – | 13.6 | – | > 9.26 | – | > 70.2 | – | 4.14
COc1cc2c3c(n(CCCNCC(OC)OC)c(=O)c2cc1OC)-c1cc2c(cc1C3=O)OCO2 | 10.3 | > 74.4 | 0.91 | > 46.8 | < 0.0315 | > 48.6 | 0.0972 | 20.5 | 18.2 | > 100 | 3.81 | 32.7 | 8.31 | 38.4 | 2.35 | 40.6 | 18.4 | 36.3 | 4.32 | > 48.6
CN1CCN(c2nc(NCCCCNc3ccnc4cc(Cl)ccc34)c3ccccc3n2)CC1 | 3.49 | 19 | 2.53 | 11.8 | 4.3 | 19.1 | 5.14 | 18.3 | 2.82 | 9.32 | 5.36 | 22.6 | 4.25 | 20.1 | 4.44 | 17.6 | 1.85 | 3.57 | 3.27 | 10.1
Cc1ccc(/C=C2/SC(Nc3nc(-c4nc(NC5=NC(=O)/C(=C\c6ccc(C)cc6)S5)sc4C)c(C)s3)=NC2=O)cc1 | 7.29 | > 50 | 0.418 | > 50 | 1.01 | > 50 | 0.643 | > 50 | 0.857 | 25.9 | 0.329 | 1.51 | 1.66 | > 31.6 | 0.757 | > 50 | 35.3 | > 50 | 0.322 | 38.9
COc1cc(Cn2c(=S)ss/c2=N\C(=S)N(C)C)cc(OC)c1OC | – | > 96 | – | > 100 | – | > 100 | – | 52.3 | – | 15.7 | – | 13.6 | – | > 70.9 | – | > 100 | – | > 100 | – | > 82
